Assay results published in patent US6313111A, “Substituted 6H-1,3,4-thiadiazine-2-amines, the use thereof as anaesthetising, cardiovascular and hypometabolic agents, and pharmaceutical composition containing them” (priority 1998, dated 2001).
Where “and” joins values, the source holds several entries; their conditions need not be identical. Equal values may be shown once. Where a name gives a salt, the structure may show the parent alone.

Key:
[1] = rate of oxygen consumption of mice in closed unit with optic-acoustic gas analyser MN 5130; format: in vivo, mice of the BALB line; conditions: relative to starting content
Procedure: In all cases tests were carried out on mice of the BALB line of 3-4 month age. […] In the case of water-soluble compounds, aqueous solutions of the test compounds were injected intraperitoneally (i.p.), while water-insoluble compounds were introduced orally (p.o.).
Rectal temperature changes (absolute magnitues in ° C.) were measured using a medicinal electrothermometer TREM-1 (Table 1). The rate of oxygen consumption was monitored by measuring concentration of oxygen in a closed testing unit with optic-acoustic gas analyser MN 5130. The data on oxygen consumption are given in percents relative to the starting content of oxygen taken as 100%. (Table 2).

[2] = behaviour of mice after injection of compound 1; format: in vivo, mice of the BALB line; conditions: for behaviour of mice: 140 mg/kg
Procedure: In all cases tests were carried out on mice of the BALB line of 3-4 month age. Non-toxic doses of compounds under test varying from 60 to 400 mg/kg were used in all experiments. In the case of water-soluble compounds, aqueous solutions of the test compounds were injected intraperitoneally (i.p.), while water-insoluble compounds were introduced orally (p.o.).
The behaviour of mice to injection of compound 1 at 140 mg/kg dosage is as follows: […]

In the case of `c1ccc(C2=NN=C(N3CCOCC3)SC2)cc1` [Compound 1, 2-Morpholino-5-phenyl-6H-1,3,4-thiadiazine, hydrobromide], the “consumption of oxygen (O2)” value ([1]; 10.0 mg/kg i.p., 0 min) is reported as 100 ± 6.9%, the “consumption of oxygen (O2)” value ([1]; 10.0 mg/kg i.p., 10 min) is reported as 94.0 ± 5.5% and the “consumption of oxygen (O2)” value ([1]; 10.0 mg/kg i.p., 20 min) is reported as 87.3 ± 9.9%. For the same molecule, the “consumption of oxygen (O2)” value ([1]; 10.0 mg/kg i.p., 30 min) was 78.2%, the “consumption of oxygen (O2)” value ([1]; 10.0 mg/kg i.p., 60 min) was 83.3 ± 18.1% and the “consumption of oxygen (O2)” value ([1]; 10.0 mg/kg i.p., 90 min) was 75.9 ± 19.3%. For the same molecule, the “consumption of oxygen (O2)” value ([1]; 10.0 mg/kg i.p., 120 min) was 95.6 ± 10.8%, the “consumption of oxygen (O2)” value ([1]; 10.0 mg/kg i.p., 180 min) was 80.6 ± 9.9% and the “consumption of oxygen (O2)” value ([1]; 10.0 mg/kg i.p., 240 min) was 92.6 ± 3.9%. For the same molecule, the “consumption of oxygen (O2)” value ([1]; 10.0 mg/kg i.p., 300 min) was 109.7 ± 8.8%, the “consumption of oxygen (O2)” value ([1]; 35.0 mg/kg i.p., 0 min) was 100 ± 7.4% and the “consumption of oxygen (O2)” value ([1]; 35.0 mg/kg i.p., 10 min) was 86.3 ± 13.1%. For the same molecule, the “consumption of oxygen (O2)” value ([1]; 35.0 mg/kg i.p., 20 min) was 73.6 ± 2.6%, the “consumption of oxygen (O2)” value ([1]; 35.0 mg/kg i.p., 30 min) was 68.4% and the “consumption of oxygen (O2)” value ([1]; 35.0 mg/kg i.p., 60 min) was 70.4 ± 7.1%. For the same molecule, the “consumption of oxygen (O2)” value ([1]; 35.0 mg/kg i.p., 90 min) was 72.1 ± 10.4%, the “consumption of oxygen (O2)” value ([1]; 35.0 mg/kg i.p., 120 min) was 68.4 ± 11.2% and the “consumption of oxygen (O2)” value ([1]; 35.0 mg/kg i.p., 180 min) was 78.4 ± 9.3%. For the same molecule, the “consumption of oxygen (O2)” value ([1]; 35.0 mg/kg i.p., 240 min) was 97.4 ± 5.6%, the “consumption of oxygen (O2)” value ([1]; 35.0 mg/kg i.p., 300 min) was 85.1 ± 3.8% and the “consumption of oxygen (O2)” value ([1]; 140.0 mg/kg i.p., 0 min) was 100 ± 21.7%. For the same molecule, the “consumption of oxygen (O2)” value ([1]; 140.0 mg/kg i.p., 10 min) was 26.3 ± 6.8%, the “consumption of oxygen (O2)” value ([1]; 140.0 mg/kg i.p., 20 min) was 46.8 ± 4.7% and the “consumption of oxygen (O2)” value ([1]; 140.0 mg/kg i.p., 30 min) was 32.2%. For the same molecule, the “consumption of oxygen (O2)” value ([1]; 140.0 mg/kg i.p., 60 min) was 49.3 ± 9.8%, the “consumption of oxygen (O2)” value ([1]; 140.0 mg/kg i.p., 90 min) was 43.6 ± 18.6% and the “consumption of oxygen (O2)” value ([1]; 140.0 mg/kg i.p., 120 min) was 49.3 ± 15.4%. For the same molecule, the “consumption of oxygen (O2)” value ([1]; 140.0 mg/kg i.p., 180 min) was 78.9 ± 10.6%, the “consumption of oxygen (O2)” value ([1]; 140.0 mg/kg i.p., 240 min) was 88.8 ± 9.8% and the “consumption of oxygen (O2)” value ([1]; 140.0 mg/kg i.p., 300 min) was 105.3 ± 20.5%. For the same molecule, the “consumption of oxygen (O2)” value ([1]; 190 mg/kg (1/2 LD16) i.p., 5 min) was 43%, the “consumption of oxygen (O2)” value ([1]; 190 mg/kg (1/2 LD16) i.p., 15 min) was 71.7% and the “consumption of oxygen (O2)” value ([1]; 190.0 mg/kg i.p., 0 min, hydrobromide) was 100% and 100 ± 27.8%. The “consumption of oxygen (O2)” value ([1]; 190.0 mg/kg i.p., 10 min) was 26.3 ± 9.8%, the “consumption of oxygen (O2)” value ([1]; 190.0 mg/kg i.p., 20 min) was 71.7 ± 4.1% and the “consumption of oxygen (O2)” value ([1]; 190.0 mg/kg i.p., 30 min) was 49.2%. For the same molecule, the “consumption of oxygen (O2)” value ([1]; 190.0 mg/kg i.p., 60 min, hydrobromide) was 29.5% and 29.5 ± 15.0%, the “consumption of oxygen (O2)” value ([1]; 190.0 mg/kg i.p., 90 min, hydrobromide) was 47.5% and 47.5 ± 6.8% and the “consumption of oxygen (O2)” value ([1]; 190.0 mg/kg i.p., 120 min, hydrobromide) was 36.9% and 36.9 ± 22.8%. For the same molecule, the “consumption of oxygen (O2)” value ([1]; 190.0 mg/kg i.p., 180 min, hydrobromide) was 55.3% and 55.3 ± 9.1%, the “consumption of oxygen (O2)” value ([1]; 190.0 mg/kg i.p., 240 min, hydrobromide) was 99.6% and 99.6 ± 11.2% and the “consumption of oxygen (O2)” value ([1]; 190.0 mg/kg i.p., 300 min, hydrobromide) was 151.6% and 151.6 ± 20.7%. The “consumption of oxygen (O2)” value ([1]; 279.0 mg/kg i.p., 0 min) was 100 ± 5.2%, the “consumption of oxygen (O2)” value ([1]; 279.0 mg/kg i.p., 10 min) was 32.6 ± 2.2% and the “consumption of oxygen (O2)” value ([1]; 279.0 mg/kg i.p., 20 min) was 26.7 ± 2.2%. For the same molecule, the “consumption of oxygen (O2)” value ([1]; 279.0 mg/kg i.p., 30 min) was 20.7%, the “consumption of oxygen (O2)” value ([1]; 279.0 mg/kg i.p., 60 min) was 9.3 ± 5.1% and the “consumption of oxygen (O2)” value ([1]; 279.0 mg/kg i.p., 90 min) was 10.9 ± 5.5%. For the same molecule, the “consumption of oxygen (O2)” value ([1]; 279.0 mg/kg i.p., 120 min) was 9.3 ± 5.9%, the “consumption of oxygen (O2)” value ([1]; 279.0 mg/kg i.p., 180 min) was 9.3 ± 4.0% and the “consumption of oxygen (O2)” value ([1]; 279.0 mg/kg i.p., 240 min) was 13.0 ± 8.7%. The “consumption of oxygen (O2)” value ([1]; 279.0 mg/kg i.p., 300 min) was 10.9 ± 1.0%, the “consumption of oxygen (O2)” value ([1]; 365.0 mg/kg i.p., 0 min) was 100 ± 4.7% and the “consumption of oxygen (O2)” value ([1]; 365.0 mg/kg i.p., 10 min) was 15.2 ± 3.1%. For the same molecule, the “consumption of oxygen (O2)” value ([1]; 365.0 mg/kg i.p., 20 min) was 15.8 ± 5.0%, the “consumption of oxygen (O2)” value ([1]; 365.0 mg/kg i.p., 30 min) was 13.6% and the “consumption of oxygen (O2)” value ([1]; 365.0 mg/kg i.p., 60 min) was 13.3 ± 3.7%. The “consumption of oxygen (O2)” value ([1]; 365.0 mg/kg i.p., 90 min) was 13.1 ± 2.0%, the “consumption of oxygen (O2)” value ([1]; 365.0 mg/kg i.p., 120 min) was 17.0 ± 3.4% and the “consumption of oxygen (O2)” value ([1]; 365.0 mg/kg i.p., 180 min) was 11.2 ± 3.4%. The “consumption of oxygen (O2)” value ([1]; 365.0 mg/kg i.p., 240 min) was 8.2 ± 2.0%, the “consumption of oxygen (O2)” value ([1]; dose 36.5 mg/kg (1.06 mM/kg) i.p., 300 min) was 18.4 ± 2.0% and the behaviour of mice ([2]; 15-180 minutes) was “akinesia, mio-relaxation, lack of reflexes”. The behaviour of mice ([2]; 180-360 minutes) was “restoration of motor activity”, the behaviour of mice ([2]; 5 minutes) was “decrease in motor activity, suppression of breathing” and the tremor or convulsions ([2]; non-toxic dose levels) was “not accompanied by tremor or convulsions”.
